Laboratory results published in ChEMBL document CHEMBL3632591, “Discovery and structural diversity of the hepatitis C virus NS3/4A serine protease inhibitor series leading to clinical candidate IDX320” (Bioorg Med Chem Lett, 2015).

Columns and labels:
[1] = system: Hepatitis C virus; assay: Antiviral activity against HCV genotype 1b infected in human HuH7 cells after 3 days by luciferase assay; assay type: functional, organism-based, Hepacivirus hominis; settings: Huh-7, 72 h
[2] = Inhibition of recombinant full length HCV genotype 1b NS3/4A protease by FRET assay; design: species or system Hepatitis C virus subtype 1b
[3] = Cytotoxicity against human HuH7 cells by colorimetric proliferation assay; assay type: cell-based, Huh-7
[4] = Intrinsic clearance in monkey liver microsomes; assay type: ADME, Macaca mulatta; settings: rhesus monkey, read-out: CLH
[5] = Intrinsic clearance in human liver microsomes; assay type: ADME; settings: read-out: CLH
[6] = Intrinsic clearance in rat cryopreserved hepatocytes assessed per 10^6 cells; assay type: ADME, cell-based, Hepatocyte; settings: read-out: CLH
[7] = Intrinsic clearance in rat liver microsomes; assay type: ADME; settings: read-out: CLH
[8] = Half life in rat liver microsomes; assay type: ADME
[9] = Cmax in Sprague-Dawley rat plasma at 2 mg/kg, iv administered as single dose measured after 8 hrs; assay type: ADME, organism-based; design: dose 2 mg/kg, route intravenous
[10] = Oral bioavailability in Sprague-Dawley rat at 10 mg/kg administered as single dose; assay type: ADME, organism-based; settings: in vivo
[11] = Cmax in Sprague-Dawley rat plasma at 10 mg/kg, po administered as single dose measured after 24 hrs; assay type: ADME, organism-based; design: dose 10 mg/kg, route oral
[12] = Half life in Sprague-Dawley rat at 10 mg/kg, po administered as single dose; assay type: ADME, organism-based; settings: in vivo
[13] = AUC (infinity) in Sprague-Dawley rat at 2 mg/kg, iv administered as single dose; assay type: ADME, organism-based; design: dose 2 mg/kg, route intravenous, time infinity; settings: in vivo
[14] = AUC (infinity) in Sprague-Dawley rat at 10 mg/kg, po administered as single dose; assay type: ADME, organism-based; design: dose 10 mg/kg, time infinity, route oral; settings: in vivo
[15] = AUCt in Sprague-Dawley rat at 2 mg/kg, iv administered as single dose; assay type: ADME, organism-based; settings: in vivo
[16] = AUCt in Sprague-Dawley rat at 10 mg/kg, po administered as single dose; assay type: ADME, organism-based; settings: in vivo
[17] = Half life in Sprague-Dawley rat at 2 mg/kg, iv administered as single dose; assay type: ADME, organism-based; settings: in vivo
[18] = Clearance in Sprague-Dawley rat at 2 mg/kg, iv administered as single dose; assay type: ADME, organism-based; settings: in vivo
[19] = Tmax in Sprague-Dawley rat at 2 mg/kg, iv administered as single dose; assay type: ADME, organism-based; settings: in vivo
[20] = Tmax in Sprague-Dawley rat at 10 mg/kg, po administered as single dose; assay type: ADME, organism-based; settings: in vivo

EC50 [1] | IC50 [2] | Structure (SMILES) | CC50 [3] | further results
72 nM | 1.8 nM | COc1ccc2c(O[C@H]3C[C@H]4C(=O)N(C)CCCC/C=C/[C@@H]5C[C@@]5(C(=O)NS(=O)(=O)C5(C)CC5)NC(=O)N4C3)cc(-c3nc(C(C)C)cs3)nc2c1C | > 75000 nM | microsomal CLint [4]: 37.8 µL/min/mg; microsomal CLint [5]: 9.8 µL/min/mg; hepatocyte CLint [6]: 12.3 µL/min/1e6 cells; microsomal CLint [7]: 12.6 µL/min/mg; half-life [8]: 1.87 h
538 nM | 3.5 nM | COc1ccc2c(O[C@H]3C[C@H]4C(=O)N(C)CCCC/C=C/[C@@H]5C[C@@]5(C(=O)NS(=O)(=O)C5(C)CC5)NC(=O)N4C3)cc(-c3nc(C(C)C)cs3)nc2c1F | 33500 nM | 
56 nM | 2.3 nM | COc1ccc2c(O[C@H]3C[C@H]4C(=O)N(C)CCCC/C=C/[C@@H]5C[C@@]5(C(=O)NS(=O)(=O)C5(C)CC5)NC(=O)N4C3)cc(-c3nc(C(C)C)cs3)nc2c1Cl | 48500 nM | microsomal CLint [4]: 66.8 µL/min/mg; microsomal CLint [5]: 18.5 µL/min/mg; hepatocyte CLint [6]: 11.2 µL/min/1e6 cells; microsomal CLint [7]: 9.7 µL/min/mg; half-life [8]: 2.38 h
13 nM | 0.5 nM | COc1ccc2c(O[C@H]3C[C@H]4C(=O)N(C)CCCC/C=C/[C@@H]5C[C@@]5(C(=O)NS(=O)(=O)C5(C)CC5)NC(=O)N4C3)cc(-c3nc(C(F)(F)F)cs3)nc2c1C | 75000 nM | Cmax [9]: 2670 ng/mL; microsomal CLint [4]: 46.7 µL/min/mg; bioavailability [10]: 18%; Cmax [11]: 406 ng/mL; half-life [12]: 5.2 h; AUC(0-inf) [13]: 2570 ng·h/mL; AUC(0-inf) [14]: 2380 ng·h/mL; AUC(0-t) [15]: 2540 ng·h/mL; microsomal CLint [5]: 24 µL/min/mg; hepatocyte CLint [6]: 17.4 µL/min/1e6 cells; AUC(0-t) [16]: 2230 ng·h/mL; half-life [17]: 1.5 h; clearance [18]: 13.2 mL/min/kg; Tmax [19]: 4.8 min; microsomal CLint [7]: 11.4 µL/min/mg; half-life [8]: 2.03 h; Tmax [20]: 1 h
21 nM | 1 nM | COc1ccc2c(O[C@H]3C[C@H]4C(=O)N(C)CCCC/C=C/[C@@H]5C[C@@]5(C(=O)NS(=O)(=O)C5CC5)NC(=O)N4C3)cc(-c3nc(C4CC4)cs3)nc2c1Cl | 31200 nM | 
32 nM | 0.8 nM | COc1ccc2c(O[C@H]3C[C@H]4C(=O)N(C)CCCC/C=C/[C@@H]5C[C@@]5(C(=O)NS(=O)(=O)C5(C)CC5)NC(=O)N4C3)cc(-c3csc(C(C)C)n3)nc2c1Cl | 30200 nM | 
2.7 nM | 0.9 nM | C#Cc1csc(-c2cc(O[C@H]3C[C@H]4C(=O)N(C)CCCC/C=C/[C@@H]5C[C@@]5(C(=O)NS(=O)(=O)C5(C)CC5)NC(=O)N4C3)c3ccc(OC)c(C)c3n2)n1 | 75000 nM | 
2.8 nM | 0.9 nM | C#Cc1csc(-c2cc(O[C@H]3C[C@H]4C(=O)N(C)CCCC/C=C/[C@@H]5C[C@@]5(C(=O)NS(=O)(=O)C5CC5)NC(=O)N4C3)c3ccc(OC)c(C)c3n2)n1 | 14400 nM | 
89 nM | 10 nM | COc1ccc2c(O[C@H]3C[C@H]4C(=O)N(C)CCCC/C=C/[C@@H]5C[C@@]5(C(=O)NS(=O)(=O)C5(C)CC5)NC(=O)N4C3)cc(-c3nc(C#N)cs3)nc2c1Cl | 75000 nM | 
0.2 nM | 0.6 nM | C#Cc1csc(-c2cc(O[C@H]3CCN4C(=O)N(C)CCCC/C=C/[C@@H]5C[C@@]5(C(=O)NS(=O)(=O)C5(C)CC5)NC(=O)[C@@H]4C3)c3ccc(OC)c(C)c3n2)n1 | > 75000 nM | 

The remaining lines, values behind:

Structure (SMILES) | EC50 [1] | IC50 [2] | CC50 [3] | further results
COc1ccc2c(O[C@H]3C[C@H]4C(=O)N(C)CCCC/C=C/[C@@H]5C[C@@]5(C(=O)NS(=O)(=O)C5(C)CC5)NC(=O)N4C3)cc(-c3nc(C(C)C)cs3)nc2c1 | 508 nM | 1.7 nM | 42700 nM | 
COc1cc2c(O[C@H]3C[C@H]4C(=O)N(C)CCCC/C=C/[C@@H]5C[C@@]5(C(=O)NS(=O)(=O)C5(C)CC5)NC(=O)N4C3)cc(-c3nc(C(C)C)cs3)nc2cc1Cl | 191 nM | 8.6 nM | > 75000 nM | 
COc1ccc2c(O[C@H]3C[C@H]4C(=O)N(C)CCCC/C=C/[C@@H]5C[C@@]5(C(=O)NS(=O)(=O)C5(C)CC5)NC(=O)N4C3)cc(-c3nc(C(C)C)cs3)nc2c1Br | 29 nM | 0.5 nM | 51200 nM | 
COc1ccc2c(O[C@H]3C[C@H]4C(=O)N(C)CCCC/C=C/[C@@H]5C[C@@]5(C(=O)NS(=O)(=O)C5(C)CC5)NC(=O)N4C3)cc(-c3nc(C4CCC4)cs3)nc2c1Cl | 29 nM | 1.3 nM | 75000 nM | 
COc1ccc2c(O[C@H]3C[C@H]4C(=O)N(C)CCCC/C=C/[C@@H]5C[C@@]5(C(=O)NS(=O)(=O)C5(C)CC5)NC(=O)N4C3)cc(-c3cc(C(C)C)on3)nc2c1Cl | 669 nM | 3.7 nM | 75000 nM | 
COc1ccc2c(O[C@H]3C[C@H]4C(=O)N(C)CCCC/C=C/[C@@H]5C[C@@]5(C(=O)NS(=O)(=O)C5(C)CC5)NC(=O)N4C3)cc(-c3csc(C(F)(F)F)n3)nc2c1Cl | 19 nM | 1 nM | 59000 nM | 
COc1ccc2c(O[C@H]3C[C@H]4C(=O)N(C)CCCC/C=C/[C@@H]5C[C@@]5(C(=O)NS(=O)(=O)C5CC5)NC(=O)N4C3)cc(-c3csc(C(F)(F)F)n3)nc2c1C | 8 nM | 0.9 nM | 75000 nM | microsomal CLint [4]: 39.9 µL/min/mg; microsomal CLint [5]: 27.1 µL/min/mg; hepatocyte CLint [6]: 30 µL/min/1e6 cells; microsomal CLint [7]: 23.7 µL/min/mg; half-life [8]: 0.983 h
COc1ccc2c(O[C@H]3C[C@H]4C(=O)N(C)CCCC/C=C/[C@@H]5C[C@@]5(C(=O)NS(=O)(=O)C5(C)CC5)NC(=O)N4C3)cc(-n3cc(C(C)C)cn3)nc2c1C | 65 nM | 0.9 nM | 9610 nM | 
COc1ccc2c(O[C@H]3C[C@H]4C(=O)N(C)CCCC/C=C/[C@@H]5C[C@@]5(C(=O)NS(=O)(=O)C5(C)CC5)NC(=O)N4C3)cc(-n3cc(C(F)(F)F)cn3)nc2c1Cl | 27 nM | 0.4 nM | 21900 nM | 
COc1ccc2c(O[C@H]3C[C@H]4C(=O)N(C)CCCC/C=C/[C@@H]5C[C@@]5(C(=O)NS(=O)(=O)C5(C)CC5)NC(=O)N4C3)cc(-n3cc(C(C)C)nn3)nc2c1Cl | 593 nM | 7.3 nM | 28500 nM | 
COc1ccc2c(O[C@H]3C[C@H]4C(=O)N(C)CCCC/C=C/[C@@H]5C[C@@]5(C(=O)NS(=O)(=O)C5(C)CC5)NC(=O)N4C3)cc(C#N)nc2c1C | 499 nM | 6.4 nM | 55800 nM | 
C#Cc1cccc(-c2cc(O[C@H]3C[C@H]4C(=O)N(C)CCCC/C=C/[C@@H]5C[C@@]5(C(=O)NS(=O)(=O)C5(C)CC5)NC(=O)N4C3)c3ccc(OC)c(C)c3n2)c1 | 85 nM | 7 nM | 75000 nM | 
COc1ccc2c(O[C@H]3C[C@H]4C(=O)N(C)CCCC/C=C/[C@@H]5C[C@@]5(C(=O)NS(=O)(=O)C5CC5)NC(=O)N4C3)cc(-c3nc(C)cs3)nc2c1Cl | 22 nM | 1 nM | 75000 nM | 
COc1ccc2c(O[C@H]3C[C@H]4C(=O)N(C)CCCC/C=C/[C@@H]5C[C@@]5(C(=O)NS(=O)(=O)C5CC5)NC(=O)N4C3)cc(-c3noc(C)n3)nc2c1C | > 750 nM | 25.7 nM | 75000 nM | 
C#Cc1csc(-c2cc(O[C@H]3C[C@H]4C(=O)N(C)CCCC/C=C/[C@@H]5C[C@@]5(C(=O)NS(=O)(=O)C5(C)CC5)NC(=O)N4C3)c3ccc(OC)c(Cl)c3n2)n1 | 4 nM | 0.5 nM | 17000 nM | 
C=Cc1csc(-c2cc(O[C@H]3C[C@H]4C(=O)N(C)CCCC/C=C/[C@@H]5C[C@@]5(C(=O)NS(=O)(=O)C5(C)CC5)NC(=O)N4C3)c3ccc(OC)c(Cl)c3n2)n1 | 4 nM | 0.8 nM | 57100 nM | 
COc1ccc2c(OC[C@@H]3C[C@H]4C(=O)N(C)CCCC/C=C/[C@@H]5C[C@@]5(C(=O)NS(=O)(=O)C5(C)CC5)NC(=O)N34)cc(-c3nc(C(C)C)cs3)nc2c1C |  |  |  | microsomal CLint [4]: 500 µL/min/mg; microsomal CLint [5]: 299 µL/min/mg; microsomal CLint [7]: 364 µL/min/mg; half-life [8]: 0.0633 h
COc1ccc2c(OC[C@@H]3C[C@H]4C(=O)N(C)CCCC/C=C/[C@@H]5C[C@@]5(C(=O)NS(=O)(=O)C5(C)CC5)NC(=O)N34)cc(-c3nc(C(C)C)cs3)nc2c1Cl |  |  |  | microsomal CLint [4]: 500 µL/min/mg; microsomal CLint [5]: 472 µL/min/mg; microsomal CLint [7]: 182 µL/min/mg; half-life [8]: 0.133 h
COc1ccc2c(O[C@H]3CCN4C(=O)N(C)CCCC/C=C/[C@@H]5C[C@@]5(C(=O)NS(=O)(=O)C5CC5)NC(=O)[C@@H]4C3)cc(-c3nc(C(F)(F)F)cs3)nc2c1C | 0.9 nM | 0.4 nM | > 75000 nM | 
